Activity calls are given as the source filed them. The calls are words filed in the database; no cut-off is given here.
What was measured:
[1] = biological target: T1, Parathyroid hormone/parathyroid hormone-related peptide receptor (Homo sapiens, UniProt Q03431); test: Agonist activity at recombinant human PTHR1 expressed in pig LLC-PK1 cells assessed as increase in cAMP production measured after 20 mins by EIA; assay type: functional, cell-based
T1 sequence (Q03431 whole entry): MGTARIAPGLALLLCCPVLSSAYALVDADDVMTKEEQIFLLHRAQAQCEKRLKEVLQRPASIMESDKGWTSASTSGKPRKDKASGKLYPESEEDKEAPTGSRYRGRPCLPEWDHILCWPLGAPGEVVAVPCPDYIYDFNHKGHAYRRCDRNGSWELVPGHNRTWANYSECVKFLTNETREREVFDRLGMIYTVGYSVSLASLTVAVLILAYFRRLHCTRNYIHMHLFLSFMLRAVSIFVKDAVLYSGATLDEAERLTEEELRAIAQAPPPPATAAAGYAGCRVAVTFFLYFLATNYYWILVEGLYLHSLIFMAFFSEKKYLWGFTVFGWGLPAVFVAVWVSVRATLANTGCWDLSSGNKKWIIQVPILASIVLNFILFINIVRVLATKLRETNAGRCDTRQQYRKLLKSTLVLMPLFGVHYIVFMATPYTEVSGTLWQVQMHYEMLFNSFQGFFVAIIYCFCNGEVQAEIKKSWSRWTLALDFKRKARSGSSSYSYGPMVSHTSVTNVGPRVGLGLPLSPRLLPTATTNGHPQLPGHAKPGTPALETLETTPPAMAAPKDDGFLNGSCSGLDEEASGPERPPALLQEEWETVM

[2] = biological target: T2, Parathyroid hormone/parathyroid hormone-related peptide receptor (Homo sapiens) (UniProt Q03431); conditions: LLC-PK1
T2 sequence (whole entry): T1 sequence (Q03431 whole entry)

[3] = Clearance in human liver microsomes at 1 uM measured after 30 mins in presence of NADPH by LC-MS/MS analysis; assay type: ADME, Microsome; conditions: read-out: CLH
[4] = AUC (infinity) in rat at 2 mg/kg, iv by LC-MS/MS analysis; assay type: ADME, organism-based; design: dose 2 mg/kg, route intravenous, time infinity; conditions: in vivo
[5] = Clearance in rat at 2 mg/kg, iv by LC-MS/MS analysis; assay type: ADME, organism-based; conditions: in vivo
[6] = Volume of distribution at steady state in rat at 2 mg/kg, iv by LC-MS/MS analysis; assay type: ADME, organism-based; conditions: in vivo, read-out: Vdss
[7] = Half life in rat at 2 mg/kg, iv by LC-MS/MS analysis; assay type: ADME, organism-based; conditions: in vivo
[8] = test system: Rattus norvegicus; test: Anti-hypoparathyroidism activity in po dosed TPTX Crl:CD(SD) rat assessed as increase in serum calcium level measured up to 24 hrs by o-CPC method; assay type: functional, organism-based
[9] = test system: Rattus norvegicus; test: Anti-hypoparathyroidism activity in po dosed TPTX Crl:CD(SD) rat assessed as decrease in serum phosphate level measured up to 24 hrs by xanthine oxidase based method; assay type: functional, organism-based
[10] = test system: Rattus norvegicus; test: Anti-hypoparathyroidism activity in po dosed TPTX Crl:CD(SD) rat assessed as increase in serum calcium level by measuring serum calcium level at 30 mg/kg, po administered as single dose measured after 24 hrs by o-CPC method; assay type: functional
[11] = test system: Rattus norvegicus; test: Anti-hypoparathyroidism activity in po dosed TPTX Crl:CD(SD) rat assessed as time required to show maximum increase in serum calcium level by o-CPC method; assay type: functional
[12] = test system: Rattus norvegicus; test: Anti-hypoparathyroidism activity in po dosed TPTX Crl:CD(SD) rat assessed as time required to show minimum decrease in serum phosphate level by xanthine oxidase based method; assay type: functional
[13] = test system: Rattus norvegicus; test: Anti-hypoparathyroidism activity in sc dosed TPTX Crl:CD(SD) rat assessed as increase in serum calcium level measured up to 24 hrs by o-CPC method; assay type: functional, organism-based
[14] = Drug metabolism in human liver microsomes assessed as hydrolysis by measuring compound 19 formation at 1 uM measured after 30 mins in presence of NADPH by LC-MS/MS analysis; assay type: ADME, Microsome; conditions: 0.5 h
[15] = Drug metabolism in human liver microsomes assessed as compound 17 formation at 1 uM measured after 30 mins in presence of NADPH by LC-MS/MS analysis; assay type: ADME, Microsome; conditions: 0.5 h
[16] = Drug metabolism in human liver microsomes assessed as oxidation by measuring compound 18 formation at 1 uM measured after 30 mins in presence of NADPH by LC-MS/MS analysis; assay type: ADME, Microsome; conditions: 0.5 h

`Cc1cc(N2CC(=O)NC2=O)cc(C)c1CCS(=O)(=O)N1CCC2(CC1)N=C(c1ccc(OC(F)(F)F)cc1)NC2=O` showed an EC50 [1] of over 100 µM and an EC20 [2] of over 100 µM.

In the case of `Cc1cc(N2C(=O)NC(=O)C2(C)C)cc(C)c1CCS(=O)(=O)N1CCC2(CC1)N=C(c1ccc(OC(F)(F)F)cc1)NC2=O` [PCO-371], the microsomal CLint at 1 µM [3] is reported as 30 µL/min/mg, the AUC(0-inf) [4] is reported as 1100 ng·h/mL and the clearance [5] is reported as 30.5 mL/min/kg. For the same molecule, the Vd [6] was 3.04 L/kg, the half-life [7] was 1.3 h and the Activity [8] was “Dose-dependent effect”. For the same molecule, the Activity [9] was “Dose-dependent effect”, the Activity [10] was 8.8 to 10.4 mg/dL and the Time [11] was 10 h. For the same molecule, the Time [12] was 10 h and the EC20 [2] was 1.1 µM.

In the case of `Cc1cc(N2C(=O)NC(=O)C23CCCC3)cc(C)c1CCS(=O)(=O)N1CCC2(CC1)N=C(c1ccc(OC(F)(F)F)cc1)NC2=O`, the microsomal CLint at 1 µM [3] is reported as 35 µL/min/mg.

For `CC[C@H](C)[C@H](NC(=O)[C@H](CCC(=O)O)NC(=O)[C@H](CO)NC(=O)[C@@H](NC(=O)[C@@H](N)CO)C(C)C)C(=O)N[C@@H](CCC(N)=O)C(=O)N[C@@H](CC(C)C)C(=O)N[C@@H](CCSC)C(=O)NC(Cc1cnc[nH]1)C(=O)N[C@@H](CC(N)=O)C(=O)N[C@@H](CC(C)C)C(=O)NCC(=O)N[C@@H](CCCCN)C(=O)N[C@@H](Cc1cnc[nH]1)C(=O)N[C@@H](CC(C)C)C(=O)N[C@@H](CC(N)=O)C(=O)N[C@@H](CO)C(=O)NC(CCSC)C(=O)N[C@@H](CCC(=O)O)C(=O)N[C@@H](CCCNC(=N)N)C(=O)N[C@H](C(=O)N[C@@H](CCC(=O)O)C(=O)N[C@@H](Cc1c[nH]c2ccccc12)C(=O)N[C@@H](CC(C)C)C(=O)N[C@@H](CCCNC(=N)N)C(=O)N[C@@H](CCCCN)C(=O)N[C@@H](CCCCN)C(=O)N[C@@H](CC(C)C)C(=O)N[C@@H](CCC(N)=O)C(=O)N[C@@H](CC(=O)O)C(=O)N[C@H](C(=O)N[C@@H](Cc1cnc[nH]1)C(=O)N[C@@H](CC(N)=O)C(=O)N[C@@H](Cc1ccccc1)C(=O)O)C(C)C)C(C)C` (some centres undefined), the Activity [13] was “Active” and the EC20 [2] was 0.0006 µM.

With `Cc1cc(N(C)C(N)=O)cc(C)c1CCS(=O)(=O)N1CCC2(CC1)N=C(c1ccc(OC(F)(F)F)cc1)NC2=O` the microsomal CLint at 1 µM [3] was 48 µL/min/mg.

Molecule `Cc1cc(N2C(=O)CNC2=O)cc(C)c1CCS(=O)(=O)N1CCC2(CC1)N=C([C@H]1CC[C@H](C)CC1)NC2=O` has an EC50 [1] of 32 µM, a microsomal CLint at 1 µM [3] of 53 µL/min/mg and an EC20 [2] of 6 µM.

With `Cc1cc(N)cc(CO)c1C(O)CS(=O)(=O)N1CCC2(CC1)N=C([C@H]1CC[C@H](C)CC1)NC2=O` (some centres undefined) the Drug metabolism [14] was “Metabolite_Detected”.

`Cc1cc(N2C(=O)CNC2=O)cc(C)c1CCS(=O)(=O)N1CCC2(CC1)N=C(c1ccc(OC(F)(F)F)cc1)NC2=O` showed a microsomal CLint at 1 µM [3] of 110 µL/min/mg.

With `Cc1cc(N(C)C(N)=O)cc(C)c1CCS(=O)(=O)N1CCC2(CC1)N=C([C@H]1CC[C@H](C)CC1)NC2=O` the Drug metabolism [15] was “Metabolite_Detected”, the Activity [8] was “Dose-dependent effect” and the Activity [9] was “Dose-dependent effect”.

Molecule `CCC1(CC)C(=O)NC(=O)N1c1cc(C)c(CCS(=O)(=O)N2CCC3(CC2)N=C(c2ccc(OC(F)(F)F)cc2)NC3=O)c(C)c1` has an EC50 [1] of over 100 µM, a microsomal CLint at 1 µM [3] of 29 µL/min/mg and an EC20 [2] of 7.4 µM.

Work on `CC[C@H]1CC[C@H](C2=NC3(CCN(S(=O)(=O)CCc4c(C)cc(N(C)C(N)=O)cc4C)CC3)C(=O)N2)CC1` yielded an EC50 [1] of 33 µM, a microsomal CLint at 1 µM [3] of 170 µL/min/mg and an EC20 [2] of 2.2 µM.

In the case of `Cc1cc(N)cc(C)c1CCS(=O)(=O)N1CCC2(CC1)N=C([C@H]1CC[C@H](C)CC1)NC2=O`, the Drug metabolism [16] is reported as “Metabolite_Detected”.

For `Cc1cc(N2C(=O)N(C)C(=O)C2(C)C)cc(C)c1CCS(=O)(=O)N1CCC2(CC1)N=C(c1ccc(OC(F)(F)F)cc1)NC2=O`, the microsomal CLint at 1 µM [3] was 330 µL/min/mg.

Molecule `Cc1cc(N2C(=O)NC(=O)C2C)cc(C)c1CCS(=O)(=O)N1CCC2(CC1)N=C(c1ccc(OC(F)(F)F)cc1)NC2=O` (centres undefined) has a microsomal CLint at 1 µM [3] of 71 µL/min/mg.

From ChEMBL document CHEMBL4342465, “Lead Optimization and Avoidance of Reactive Metabolite Leading to PCO371, a Potent, Selective, and Orally Available Human Parathyroid Hormone Receptor 1 (hPTHR1) Agonist” (J Med Chem, 2020)
